The nature of data set [1]: Antitumorous activity (general statement). The following applies: result in words.
Data set [2] is described as follows: Antibacterial activity (general statement). The following applies: result in words.
Data set [3] has as its system B-16 melanoma cells. As to the kind of experiment: Antitumorous activity: growth inhibition of B-16 melanoma cells (Test Example 1). In kind it is cell-based, mice. The following applies: Mus musculus, B16, 1 hour drug exposure at 37° C., then 48 hours incubation. On the procedure:
B-16 melanoma cells were suspended in RPMI 1640 medium containing 5% fetal bovine serum in a concentration of 4×10^4 cells/ml. The resulting suspension was placed in the 12 wells (1 ml/well) of a plate-cum-wells, wherein preliminary incubation was then carried out for 24 hours. A test drug was dissolved in a mixture of dimethyl sulfoxide and a culture medium of 5% serum - RPMI 1640 (1:3 in volume ratio). Thus, drug solutions having various respective drug concentrations were prepared. 20 μl each of these drug solutions were respectively added to the wells of the plate. The resulting drug-added suspensions were subjected to incubation at 37° C. for 1 hour. Subsequently, the incubated medium were removed from the respective wells, which were then washed once with the same culture medium as mentioned above. Thereafter, the same culture medium as mentioned above was freshly placed in each of the wells of the plate, followed by incubation at 37° C. for 48 hours.
The number of cells in each well was counted according to a customary method using a Coulter counter.
The values of growth control rate in the members of each drug-treated group, which members corresponding to the respective wells of the plate were culture broths respectively treated with drug solutions having various respective drug concentrations, were calculated by comparison with the growth rate of the drug-untreated group. The inhibitory concentration of each test drug in which the growth control rate was 50% (IC50) was calculated from the above-calculated values of growth control rate.

The conditions of data set [4]: result in words; already known; cited from earlier work.
The conditions of data set [5]: result in words; already known; cited from earlier work. The source holds these as a separate data set.
Details of data set [6]: species or system mice. The following applies: mouse, in vivo. Here is the method:
Exo-6-O-(N-trifluoroacetyl-β-aminoisobutyryl)-3',4'-O-benzylidenechartreusin was intravenously injected in a dose of 40 mg/kg into 160 DDY mice. 300 g of feces excreted within 24 hours after the intravenous injection were collected and ground down in a mortar. 1 liter of a mixed solvent (methanol:chloroform=1:1 in volume ratio) was added to the ground-down feces. The resulting mixture was stirred at 60° C. for 30 minutes to effect extraction, followed by separation of insolubles by filtration. The separated insolubles were admixed with 700 ml of the same mixed solvent as mentioned above to effect extraction again. The two resulting extracts were put together and concentrated under reduced pressure to obtain 9 g of crude exo-BDMC. The crude exo-BDMC was subjected to a purification operation by silica gel column chromatography (developing solvent: chloroform+methanol). The above-mentioned purification operation was repeated. An exo-BDMC-containing fraction obtained by the foregoing purification procedure was concentrated and then recrystallized from a mixed solvent (chloroform:methanol:ethyl acetate=2:1:1 in volume ratio) to obtain 50 mg of exo-BDMC. […]

In data set [7] the test system is Flavobacterium meningosepticum IFO 12535. As to the kind of experiment: Antibacterial activity, agar dilution method (Test Example 2). In kind it is cell-based. The following applies: Elizabethkingia meningoseptica, IFO12535. From the text: (§1) The minimum inhibitory concentrations (MIC) of exo-BDMC against growth of various microorganisms were examined according to an agar dilution method.
(In general: Agar dilution tests growth on a series of plates holding different concentrations.)

The subject of data set [8] is Bacillus subtilis PCI 219. The description is as above. The following applies: PCI219. The data set is classed as cell-based.
From the text: as §1

Data set [9] deals with Staphylococcus aureus 209P. The description is as above. The data set is classed as cell-based.
From the text: as §1

Data set [10] concerns Bacillus megaterium IFO 12108. The data set is described as above. In kind it is cell-based. The following applies: Priestia megaterium, IFO12108.
From the text: as §1

For data set [11], the system named is Gram-positive bacteria or Gram-negative bacteria. Nature of the data set: Growth inhibition of bacteria (general statement). The data set is classed as cell-based. The following applies: exo-BDMC or its salts; result in words.
For data set [12], the system named is cells of experimental tumors of mice and the like, such as P-388 leukemia, L-1210 leukemia, B-16 melanoma, M-5076 sarcoma, Colon 26, and Lewis lung carcinoma. As to the kind of experiment: Activity against cells of experimental tumors (general statement). The following applies: exo-BDMC or its salts; result in words. In kind it is cell-based.

The structures appear in SMILES notation. Values after ≈ are worked out from the molar mass of the structure shown. Like-named read-outs stand apart in the source and are kept apart here.

Turning to `Cc1ccc2oc(=O)c3c(O)c4cccc(O[C@@H]5O[C@H](C)[C@H](O)[C@H](O)[C@H]5O[C@H]5O[C@H](C)[C@H](O)[C@H](O)[C@H]5O)c4c4oc(=O)c1c2c34` [3"-DMC, 3"-demethylchartreusin], in data set [1], the antitumorous activity entry was “has antitumorous and antibacterial activities”. In addition, the antibacterial activity entry in data set [2] was “has antitumorous and antibacterial activities”. Moreover, half-maximal inhibition in data set [3] (IC50) required 11 µg/mL (≈ 17.6 µM).

Regarding `CO[C@H]1[C@@H](O)[C@@H](C)O[C@H](O[C@H]2[C@H](Oc3cccc4c(O)c5c(=O)oc6ccc(C)c7c(=O)oc(c34)c5c67)O[C@H](C)[C@H](O)[C@@H]2O)[C@@H]1O` [chartreusin], in [4], the antibacterial activity result is “has antibacterial and antitumorous activities”. For the same molecule, in data set [5], the antitumorous activity entry was “has antibacterial and antitumorous activities”. Further, the midpoint of inhibition in data set [3], the IC50, lay at 9.2 µg/mL (≈ 14.4 µM).

In the case of `CO[C@H]1[C@@H](O)[C@@H](C)O[C@H](O[C@H]2[C@H](Oc3cccc4c(O)c5c(=O)oc6ccc(C)c7c(=O)oc(c34)c5c67)O[C@H](C)[C@@H]3OC(c4ccccc4)O[C@@H]32)[C@@H]1O` (stereo partly drawn) [exo-BC, Exo-3',4'-O-benzylidenechartreusin, reference compound], the midpoint of inhibition in data set [3], the IC50, lay at 2.1 µg/mL (≈ 2.88 µM).

As for `Cc1ccc2oc(=O)c3c(O)c4cccc(O[C@@H]5O[C@H](C)[C@@H]6OC(c7ccccc7)O[C@@H]6[C@H]5O[C@H]5O[C@H](C)[C@H](O)[C@H](O)[C@H]5O)c4c4oc(=O)c1c2c34` (stereo partly drawn) [exo-BDMC, exo-3',4'-O-benzylidene-3"-demethylchartreusin], in data set [6], the “presence in the excreta of mice (metabolite of exo-3',4'-O-benzylidenechartreusin derivatives)” value is listed as “exists in the excreta of mice”. Besides, in [1], the antitumorous activity result was “has antitumorous and antibacterial activities”. The MIC was determined as 1.56 µg/mL (≈ 2.18 µM) in data set [7], 1.56 µg/mL (≈ 2.18 µM) in data set [8], 3.13 µg/mL (≈ 4.38 µM) in data set [9] and 1.56 µg/mL (≈ 2.18 µM) in data set [10]. In [11], the “capacity of inhibiting growth of bacteria” value is “strongly inhibiting growth of either Gram-positive bacteria or Gram-negative bacteria”. Besides, the antibacterial activity entry in data set [2] is “has antitumorous and antibacterial activities”. In addition, in data set [12], the “activities against cells of experimental tumors” value was “exhibit activities against cells of experimental tumors”. Also, half-maximal inhibition in data set [3] (IC50) was put at 0.9 µg/mL (≈ 1.26 µM).

For orientation: IC50 means the concentration at which inhibition is half-maximal. A higher IC50 goes with weaker potency. For orientation: MIC means the smallest concentration in the dilution series that meets the test's criterion for growth inhibition. Read a low MIC as greater potency.

Values taken from patent US5149793A, “Exo-3',4'-O-benzylidene-3"-demethylchartreusin and its salts” (Ishihara Sangyo Kaisha, Ltd., priority 1989, dated 1992).
